Measurements as given in ChEMBL document CHEMBL3885881, “DrugMatrix”.

Species on record: Rattus norvegicus
Experiment: DrugMatrix - Regimen: Daily Repeat
Type: toxicity, organism-based, Sprague-Dawley
Set-up: regimen Daily Repeat, gender Male, age 6-8 weeks
Conditions: in vivo, po, route oral GAVAGE, […]; for ABSOLUTE BASOPHIL / BASOPHIL / ABSOLUTE EOSINOPHIL / ABSOLUTE LYMPHOCYTE / ABSOLUTE MONOCYTE / ABSOLUTE SEGMENTED NEUTROPHIL / EOSINOPHIL / ERYTHROCYTE COUNT / HEMATOCRIT / HEMOGLOBIN / LEUKOCYTE COUNT / LYMPHOCYTE / MEAN CORPUSCULAR HEMOGLOBIN / MEAN CORPUSCULAR HEMOGLOBIN CONCENTRATION / MEAN CORPUSCULAR VOLUME / MONOCYTE / NEUTROPHIL / NUCLEATED RED BLOOD CELLS / PLATELET COUNT: tissue Blood; for ALANINE AMINOTRANSFERASE / ALBUMIN / ALKALINE PHOSPHATASE / ASPARTATE AMINOTRANSFERASE / BLOOD UREA NITROGEN / CARBON DIOXIDE / CHOLESTEROL / CREATINE PHOSPHOKINASE / CREATININE / GLUCOSE / LACTATE DEHYDROGENASE / LIPASE / TOTAL BILIRUBIN / TOTAL PROTEIN / URIC ACID: tissue Plasma
[1] = 0 mg/kg, 72 h, dose level Control, time 3 day
[2] = 0 mg/kg, 120 h, dose level Control, time 5 day
[3] = 10 mg/kg, 72 h, dose level M1, time 3 day
[4] = 10 mg/kg, 120 h, dose level M1, time 5 day
[5] = 32 mg/kg, 72 h, dose level M2, time 3 day
[6] = 32 mg/kg, 120 h, dose level M2, time 5 day

CC/C(=C(\c1ccccc1)c1ccc(OCCN(C)C)cc1)c1ccccc1 [TAMOXIFEN]
ABSOLUTE BASOPHIL [1]: 0 CELLS/uL | BASOPHIL [1]: 0% | ABSOLUTE BASOPHIL [2]: 0 CELLS/uL | BASOPHIL [2]: 0% | ABSOLUTE BASOPHIL [3]: 0 CELLS/uL | ABSOLUTE EOSINOPHIL [3]: 39 CELLS/uL | ABSOLUTE LYMPHOCYTE [3]: 8296.33 CELLS/uL | ABSOLUTE MONOCYTE [3]: 168.33 CELLS/uL | ABSOLUTE SEGMENTED NEUTROPHIL [3]: 529.67 CELLS/uL | BASOPHIL [3]: 0% | EOSINOPHIL [3]: 0.33% | ERYTHROCYTE COUNT [3]: 5.69 x10E6/uL | HEMATOCRIT [3]: 36.07% | HEMOGLOBIN [3]: 13.53 G/DL | LEUKOCYTE COUNT [3]: 9.03 x10E3/uL | LYMPHOCYTE [3]: 92.33% | MEAN CORPUSCULAR HEMOGLOBIN [3]: 23.9 pg | MEAN CORPUSCULAR HEMOGLOBIN CONCENTRATION [3]: 37.57 G/DL | MEAN CORPUSCULAR VOLUME [3]: 63.63 fL | MONOCYTE [3]: 1.67% | NEUTROPHIL [3]: 5.67% | NUCLEATED RED BLOOD CELLS [3]: 0 /100WBC | PLATELET COUNT [3]: 1296.33 x10E3/uL | ALANINE AMINOTRANSFERASE [3]: 62.67 u/L | ALBUMIN [3]: 4 G/DL | ALKALINE PHOSPHATASE [3]: 415 u/L | ASPARTATE AMINOTRANSFERASE [3]: 79.33 u/L | BLOOD UREA NITROGEN [3]: 9.67 mg/dL | CARBON DIOXIDE [3]: 28.33 mmol/L | CHOLESTEROL [3]: 52.67 mg/dL | CREATINE PHOSPHOKINASE [3]: 228 u/L | CREATININE [3]: 0.2 mg/dL | GLUCOSE [3]: 179 mg/dL | LACTATE DEHYDROGENASE [3]: 97.33 u/L | LIPASE [3]: 9.33 u/L | TOTAL BILIRUBIN [3]: 0.13 mg/dL | TOTAL PROTEIN [3]: 5.57 G/DL | URIC ACID [3]: 1.9 mg/dL | ABSOLUTE BASOPHIL [4]: 0 CELLS/uL | ABSOLUTE EOSINOPHIL [4]: 119.33 CELLS/uL | ABSOLUTE LYMPHOCYTE [4]: 10935 CELLS/uL | ABSOLUTE MONOCYTE [4]: 173 CELLS/uL | ABSOLUTE SEGMENTED NEUTROPHIL [4]: 706 CELLS/uL | BASOPHIL [4]: 0% | EOSINOPHIL [4]: 1% | ERYTHROCYTE COUNT [4]: 6.34 x10E6/uL | HEMATOCRIT [4]: 39.5% | HEMOGLOBIN [4]: 15 G/DL | LEUKOCYTE COUNT [4]: 11.93 x10E3/uL | LYMPHOCYTE [4]: 91.67% | MEAN CORPUSCULAR HEMOGLOBIN [4]: 23.67 pg | MEAN CORPUSCULAR HEMOGLOBIN CONCENTRATION [4]: 37.97 G/DL | MEAN CORPUSCULAR VOLUME [4]: 62.37 fL | MONOCYTE [4]: 1.33% | NEUTROPHIL [4]: 6% | NUCLEATED RED BLOOD CELLS [4]: 0 /100WBC | PLATELET COUNT [4]: 1194 x10E3/uL | ALANINE AMINOTRANSFERASE [4]: 55.67 u/L | ALBUMIN [4]: 4.53 G/DL | ALKALINE PHOSPHATASE [4]: 463 u/L | ASPARTATE AMINOTRANSFERASE [4]: 84 u/L | BLOOD UREA NITROGEN [4]: 10.33 mg/dL | CARBON DIOXIDE [4]: 27 mmol/L | CHOLESTEROL [4]: 49.33 mg/dL | CREATINE PHOSPHOKINASE [4]: 234 u/L | CREATININE [4]: 0.24 mg/dL | GLUCOSE [4]: 120 mg/dL | LACTATE DEHYDROGENASE [4]: 120 u/L | LIPASE [4]: 9.33 u/L | TOTAL BILIRUBIN [4]: 0.1 mg/dL | TOTAL PROTEIN [4]: 6.33 G/DL | URIC ACID [4]: 2.4 mg/dL | ABSOLUTE BASOPHIL [5]: 0 CELLS/uL | ABSOLUTE EOSINOPHIL [5]: 54 CELLS/uL | ABSOLUTE LYMPHOCYTE [5]: 12289.67 CELLS/uL | ABSOLUTE MONOCYTE [5]: 92.33 CELLS/uL | ABSOLUTE SEGMENTED NEUTROPHIL [5]: 964 CELLS/uL | BASOPHIL [5]: 0% | EOSINOPHIL [5]: 0.33% | ERYTHROCYTE COUNT [5]: 6.02 x10E6/uL | HEMATOCRIT [5]: 39.07% | HEMOGLOBIN [5]: 14.67 G/DL | LEUKOCYTE COUNT [5]: 13.4 x10E3/uL | LYMPHOCYTE [5]: 91.67% | MEAN CORPUSCULAR HEMOGLOBIN [5]: 24.4 pg | MEAN CORPUSCULAR HEMOGLOBIN CONCENTRATION [5]: 37.53 G/DL | MEAN CORPUSCULAR VOLUME [5]: 64.97 fL | MONOCYTE [5]: 0.67% | NEUTROPHIL [5]: 7.33% | NUCLEATED RED BLOOD CELLS [5]: 0 /100WBC | PLATELET COUNT [5]: 1258 x10E3/uL | ALANINE AMINOTRANSFERASE [5]: 66.67 u/L | ALBUMIN [5]: 4.63 G/DL | ALKALINE PHOSPHATASE [5]: 371.33 u/L | ASPARTATE AMINOTRANSFERASE [5]: 106.67 u/L | BLOOD UREA NITROGEN [5]: 5.67 mg/dL | CARBON DIOXIDE [5]: 26.33 mmol/L | CHOLESTEROL [5]: 43.33 mg/dL | CREATINE PHOSPHOKINASE [5]: 723.67 u/L | CREATININE [5]: 0.2 mg/dL | GLUCOSE [5]: 150.33 mg/dL | LACTATE DEHYDROGENASE [5]: 184.33 u/L | LIPASE [5]: 9.33 u/L | TOTAL BILIRUBIN [5]: 0.1 mg/dL | TOTAL PROTEIN [5]: 6.03 G/DL | URIC ACID [5]: 2.5 mg/dL | ABSOLUTE BASOPHIL [6]: 0 CELLS/uL | ABSOLUTE EOSINOPHIL [6]: 0 CELLS/uL | ABSOLUTE LYMPHOCYTE [6]: 12430.67 CELLS/uL | ABSOLUTE MONOCYTE [6]: 227.33 CELLS/uL | ABSOLUTE SEGMENTED NEUTROPHIL [6]: 2075.33 CELLS/uL | BASOPHIL [6]: 0% | EOSINOPHIL [6]: 0% | ERYTHROCYTE COUNT [6]: 6.29 x10E6/uL | HEMATOCRIT [6]: 39.17% | HEMOGLOBIN [6]: 14.9 G/DL | LEUKOCYTE COUNT [6]: 14.73 x10E3/uL | LYMPHOCYTE [6]: 84.33% | MEAN CORPUSCULAR HEMOGLOBIN [6]: 23.7 pg | MEAN CORPUSCULAR HEMOGLOBIN CONCENTRATION [6]: 38.07 G/DL | MEAN CORPUSCULAR VOLUME [6]: 62.27 fL | MONOCYTE [6]: 1.67% | NEUTROPHIL [6]: 14% | NUCLEATED RED BLOOD CELLS [6]: 0 /100WBC | PLATELET COUNT [6]: 1261.33 x10E3/uL | ALANINE AMINOTRANSFERASE [6]: 65.67 u/L | ALBUMIN [6]: 4.73 G/DL | ALKALINE PHOSPHATASE [6]: 464.33 u/L | ASPARTATE AMINOTRANSFERASE [6]: 99 u/L | BLOOD UREA NITROGEN [6]: 11.33 mg/dL | CARBON DIOXIDE [6]: 27.33 mmol/L | CHOLESTEROL [6]: 40.33 mg/dL | CREATINE PHOSPHOKINASE [6]: 288.67 u/L | CREATININE [6]: 0.23 mg/dL | GLUCOSE [6]: 136.67 mg/dL | LACTATE DEHYDROGENASE [6]: 164.33 u/L | LIPASE [6]: 9.67 u/L | TOTAL BILIRUBIN [6]: 0.1 mg/dL
